Results on eight compounds are retold here after publication PMC7849018 (Antimicrobial Agents and Chemotherapy, 2021).

One data set deals with HepG2 cells. In words: Intracellular reactive oxygen species level. The class given is cell-based, human.
The target of data set [1] is human mitochondrial POLRMT (Homo sapiens, UniProt O00411). In words: Single nucleotide incorporation assay. The following applies: 500 μM nucleotide analog; relative to natural NTP at same concentration. It counts as biochemical.
human mitochondrial POLRMT, sequence (O00411 42-1230): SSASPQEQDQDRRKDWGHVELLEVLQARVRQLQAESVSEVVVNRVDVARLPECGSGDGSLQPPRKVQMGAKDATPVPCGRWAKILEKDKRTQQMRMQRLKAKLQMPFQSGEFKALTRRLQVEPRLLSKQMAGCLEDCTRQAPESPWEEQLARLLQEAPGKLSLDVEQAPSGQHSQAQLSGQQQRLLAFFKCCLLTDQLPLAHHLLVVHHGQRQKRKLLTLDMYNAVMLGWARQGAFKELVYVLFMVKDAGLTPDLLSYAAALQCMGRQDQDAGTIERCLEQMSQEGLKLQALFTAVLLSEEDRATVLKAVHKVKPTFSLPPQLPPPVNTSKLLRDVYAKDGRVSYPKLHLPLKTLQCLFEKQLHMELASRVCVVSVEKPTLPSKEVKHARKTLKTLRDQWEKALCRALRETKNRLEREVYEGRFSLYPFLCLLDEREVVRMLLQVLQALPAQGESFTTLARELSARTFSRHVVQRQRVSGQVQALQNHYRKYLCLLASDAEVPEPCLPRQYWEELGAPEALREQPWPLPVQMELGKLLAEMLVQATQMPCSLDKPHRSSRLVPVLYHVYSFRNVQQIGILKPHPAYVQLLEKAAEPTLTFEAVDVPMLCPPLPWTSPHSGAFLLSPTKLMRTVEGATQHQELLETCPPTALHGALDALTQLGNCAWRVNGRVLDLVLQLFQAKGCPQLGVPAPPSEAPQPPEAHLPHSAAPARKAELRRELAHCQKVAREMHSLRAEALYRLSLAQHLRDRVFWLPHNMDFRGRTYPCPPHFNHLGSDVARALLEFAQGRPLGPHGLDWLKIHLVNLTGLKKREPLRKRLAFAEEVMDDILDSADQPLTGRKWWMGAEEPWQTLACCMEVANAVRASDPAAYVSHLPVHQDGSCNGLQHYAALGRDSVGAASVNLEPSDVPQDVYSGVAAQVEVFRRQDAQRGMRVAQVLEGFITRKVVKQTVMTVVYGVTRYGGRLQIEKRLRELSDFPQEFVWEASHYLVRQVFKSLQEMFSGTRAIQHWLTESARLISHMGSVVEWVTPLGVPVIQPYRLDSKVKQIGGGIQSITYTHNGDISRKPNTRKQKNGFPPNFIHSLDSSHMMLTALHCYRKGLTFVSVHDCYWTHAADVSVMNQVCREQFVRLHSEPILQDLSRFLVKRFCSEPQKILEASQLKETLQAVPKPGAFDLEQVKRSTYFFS
Data set [2] deals with SDH-A (nuclear DNA-encoded succinate dehydrogenase, complex II) protein level. In words: Mitochondrial protein synthesis assay. The class given is cell-based. The following applies: human, PC-3 cells.
Data set [3] is described as follows: Mitochondrial respiration. The following applies: human, PC-3 cells, 3-day treatment. It counts as cell-based.
For data set [4], the system named is COX-1 (mitochondrial DNA-encoded cytochrome c oxidase, complex IV) protein level. In words: Mitochondrial protein synthesis assay. The class given is cell-based. As to conditions: human, PC-3 cells.
Data set [5] is described as follows: Cellular ATP alongside the mitochondrial protein synthesis assay. The following applies: human, PC-3 cells.
Data set [6] can be described thus: Mitochondrial respiration. It counts as cell-based. The following applies: human; for CC50 at 3 day: PHH cells (primary human hepatocytes); for CC50 at 3 days: primary human hepatocytes (PHH).
Another data set relates to HepG2. As to conditions: read-out: 5-day CC50 HepG2 cells Anaerobic (glucose).
Data set [7] in a line: Mitochondrial respiration. The following applies: human, HepG2 cells, 3-day treatment. It counts as cell-based.
A short description of data set [8]: in vitro. The following applies: human, CC50, Myeloid progenitors; 11- to 14-day treatment.
The subject of another data set is PC-3. As to conditions: read-out: 5-day CC50 PC-3 cells Anaerobic (glucose).
Data set [9] is described as follows: in vitro. The following applies: human.
The nature of data set [10]: Mitochondrial respiration. It counts as cell-based. As to conditions: human, RPTEC cells, RPTECs, 3-day treatment.
Data set [11] is described as follows: in vitro. The following applies: human. This is another data set of the same source.
The test system of data set [12] is mitochondrial DNA (mtDNA) in HepG2 cells. In words: Mitochondrial DNA content by qPCR. It counts as cell-based, human. The following applies: continual treatment for 10 days. Background: Real-time PCR tracks product formation cycle by cycle.
In data set [13] the test system is HepG2 galactose-adapted cell line. As to conditions: read-out: 5-day CC50 HepG2 cells Aerobic (galactose).
For data set [14] the following is noted: cited from earlier work.
For data set [15] the following is noted: cited from earlier work. The source holds these as a separate data set.
The conditions of data set [16]: hospitalized patients with COVID-19; RDV for up to 10 days; cited from earlier work.
For data set [17], the system named is PC-3 galactose-adapted cell line. The following applies: CC50 galactose versus glucose culture.
For data set [18] the following is noted: moderate COVID-19, cited from earlier work.
Another data set concerns Stimulated PBMC. As to conditions: 5-day treatment.
Data set [19] has as its system SARS-CoV-2 in human airway epithelial cells (HAE). The following applies: read-out: EC50 against SARS-CoV-2; cited from earlier work.
Where [20] appears, read: pH 7.4, 3-day CC50 Spare respiration.
Setting [21] is: healthy subjects, repeat-dose study 150 mg once daily, reversible.
Setting [22] is: humans, repeated dosing of 150 mg.

By Cmax is commonly meant the highest concentration seen after dosing. The EC50 is the concentration giving half of the maximal effect.

“Also recorded” adds a separate entry of the source. Read-outs that look alike come from different tables or passages of the source.

On to `CC1=CC(=O)c2ccccc2C1=O` [menadione, reference compound], for which the “increase in ROS levels” value with HepG2 cells (30-minute incubation (100 or 200 μM)) is recorded as above 3 fold.

Take `COc1nc(N)nc2c1ncn2[C@@H]1O[C@H](COP(=O)(N[C@@H](C)C(=O)OCC(C)(C)C)Oc2cccc3ccccc23)[C@@H](O)[C@@]1(C)O` (stereo partly shown) [2’CMe-GTP, 2′CMe-GTP]: the “Rate of incorporation (% of natural dNTP or NTP), mtRNA polymerase” value in data set [1] is 92% ± 33%.

Regarding `O=C(N[C@H](CO)[C@H](O)c1ccc([N+](=O)[O-])cc1)C(Cl)Cl` [Chloramphenicol, chloramphenicol, reference compound], the values for the CC50 at 5 days in data set [2], in data set [4] and in [5] were above 25 µM, 2.6 ± 0.6 µM and 14.1 ± 3.6 µM, respectively. In addition, the CC50 at 3 day in data set [3] (3-day CC50 Cellular ATP) is above 50 µM; in [3] (3-day CC50 Total DNA content) it was above 50 µM; in data set [3] (setting [20]) it was 4.8 ± 1.3 µM.

As for `N#C[C@@]1(c2ccc3c(N)ncnn23)O[C@H](CO)[C@@H](O)[C@H]1O` [GS-441524], the CC50 at 3 day in [6], in [7] (3-day CC50 Cellular ATP), in [7] (3-day CC50 Total DNA content), in data set [7] (setting [20]), in [3] (3-day CC50 Cellular ATP) and in [3] (3-day CC50 Total DNA content) was above 100 µM each time. Further, the CC50 at 3 day in [3] (setting [20]), in [10] (3-day CC50 Cellular ATP), in data set [10] (3-day CC50 Total DNA content) and in data set [10] (setting [20]) was above 100 µM throughout. Besides, the CC50 at 3 days in data set [6] and in [6] (pH 7.4) was above 100 µM throughout. Moreover, the values for the CC50 with HepG2, in “in vitro [8]” and in the data set on PC-3 were above 100 µM, 11.7 ± 9.6 µM and above 100 µM, respectively. The CC50 at 5 days (in data set [2]; in [4]; in the data set “in vitro [9]”; in the data set “in vitro [11]”; in [5]) was above 100 µM in each case. Moreover, the “effect on mtDNA content (in words)” value in data set [12] is “overall minimal”.

`CCC(CC)COC(=O)[C@H](C)N[P@](=O)(OC[C@H]1O[C@@](C#N)(c2ccc3c(N)ncnn23)[C@H](O)[C@@H]1O)Oc1ccccc1` [RDV, Remdesivir]: the “decrease in cell viability” value in the data set with HepG2 cells (100 μM, 24-h incubation) came to 60%. In the data set on HepG2 cells (100 μM, 24-h incubation, vs DMSO control), the “increase in ROS levels” value stood at 60%. In addition, in the data set on HepG2 cells (3.1 to 50 μM, 24-h incubation), the “effect on ROS levels” value is reported as “no significant increase in ROS levels; also recorded: no effect on ROS”. For the same compound, the CC50 at 3 day turned out to be 7.8 ± 2.2 µM in [6]; 7.9 ± 0.1 µM in data set [7] (3-day CC50 Cellular ATP); 6.3 ± 0.9 µM in data set [7] (3-day CC50 Total DNA content); 10.6 ± 0.1 µM in data set [7] (setting [20]); 24 ± 1.4 µM in data set [3] (3-day CC50 Cellular ATP); 2.5 ± 0.1 µM in data set [3] (setting [20]). Further, the CC50 at 3 day was found to be 16.9 ± 4.1 µM in [10] (3-day CC50 Cellular ATP), 14.3 ± 3.3 µM in data set [10] (3-day CC50 Total DNA content) and 7.3 ± 2.7 µM in data set [10] (setting [20]). Besides, the CC50 at 3 days amounted to 13.4 ± 1.7 µM in data set [6] and 7.6 ± 1.9 µM in [6] (pH 7.4). Also, the CC50 is 11.1 ± 1.2 µM in data set [13], 5.1 ± 2.3 µM in the data set “in vitro [8]” and 14.8 ± 5.8 µM in the data set on Stimulated PBMC. The CC50 at 5 days in [2] turned out to be 8.6 ± 1.3 µM; in data set [4] it was 8.9 ± 1.1 µM; in “in vitro [9]”, 1.4 ± 0.1 µM; in [5], 11.3 ± 3.3 µM. Besides, the “adverse events of elevations in ALT” value in data set [14] (5-day RDV treatment) was 6%; in [14] (10-day RDV treatment), 8%; in [18] (5-day RDV), 34%; in data set [18] (10-day RDV), 32%. The “adverse events of elevations in AST” value in data set [14] (5-day RDV treatment) was 5%; in data set [14] (10-day RDV treatment), 7%; in data set [18] (5-day RDV), 32%; in [18] (10-day RDV) it was 32%. Moreover, in data set [15] (setting [21]), the “treatment-emergent grade 1 or 2 ALT elevations” value was 50%. For the same compound, the “treatment-emergent grade 1 or 2 AST elevations” value in data set [15] (setting [21]) is 44%. Further, the “plasma Cmax” value in data set [15] (setting [22]) is listed as 2,720 ng/ml. For the same compound, in [15] (setting [22]), the t1/2 was 1.11 h. For the same compound, the highest concentration (Cmax) in data set [15] (read-out: plasma Cmax, humans, repeated dosing of 150 mg) was 4.5 µM. Besides, the “adverse events of increased amino transferase levels, including ALT, AST, or both” value in data set [16] is 6 % of subjects. For the same compound, the “enhancement of cytotoxicity by aerobic conditions” value in data set [17] turned out to be 6 fold. The “Grade 3 or 4 adverse events, ALT” value in [18] (5-day RDV) is reported as 2%; in data set [18] (10-day RDV), 3%. The “Grade 3 or 4 adverse events, AST” value in data set [18] (5-day RDV) is recorded as 3%; in data set [18] (10-day RDV), 1%. Also, the concentration giving a half-maximal response (EC50) in [19] is 0.0099 µM. In data set [12], the “effect on mtDNA content (in words)” value is reported as “lack of dose response”.

`CC(C)C(=O)OC[C@@]1(N=[N+]=[N-])O[C@@H](n2ccc(N)nc2=O)[C@H](OC(=O)C(C)C)[C@@H]1OC(=O)C(C)C` [4’CN-CTP, 4′-CN-CTP]: the “Rate of incorporation (% of natural dNTP or NTP), mtRNA polymerase” value in data set [1] was 112% ± 10%.

As for `O=c1[nH]cc(F)c(=O)[nH]1` [5-fluorouracil, reference compound], the CC50 in the data set “in vitro [8]” worked out at 2.2 ± 0.6 µM.

Regarding `[H]/N=C(/N)N/C(=N/[H])NCCc1ccccc1` [Phenformin, phenformin, reference compound], in data set [6], the CC50 at 3 day is 9.7 ± 4.5 µM and the CC50 at 3 days is 22.1 ± 1.9 µM. The compound further had a CC50 at 3 days in [6] (pH 7.4) of 1.9 ± 0.5 µM.
